Reference: PMC8262356, “SLC26A6-selective inhibitor identified in a small-molecule screen blocks fluid absorption in small intestine” (JCI Insight, 2021)

Legend:
PAT1 (murine slc26a6) = molecular target: T1, PAT1 (murine slc26a6) (Mus musculus, UniProt Q8CIW6); test: PAT1-mediated Cl-/HCO3- exchange, cytoplasmic pH in BCECF-loaded FRT cells; type: cell-based; settings: read-out: IC50, inhibition of Cl-/HCO3- exchange
T1 construct: host or cells: Fischer rat thyroid (FRT) cells, lentiviral transduction (pLVX-IRES-mCherry-slc26a6), clonal line FRT-YFP-slc26a6
T1 sequence (Q8CIW6 24-758 limits assumed): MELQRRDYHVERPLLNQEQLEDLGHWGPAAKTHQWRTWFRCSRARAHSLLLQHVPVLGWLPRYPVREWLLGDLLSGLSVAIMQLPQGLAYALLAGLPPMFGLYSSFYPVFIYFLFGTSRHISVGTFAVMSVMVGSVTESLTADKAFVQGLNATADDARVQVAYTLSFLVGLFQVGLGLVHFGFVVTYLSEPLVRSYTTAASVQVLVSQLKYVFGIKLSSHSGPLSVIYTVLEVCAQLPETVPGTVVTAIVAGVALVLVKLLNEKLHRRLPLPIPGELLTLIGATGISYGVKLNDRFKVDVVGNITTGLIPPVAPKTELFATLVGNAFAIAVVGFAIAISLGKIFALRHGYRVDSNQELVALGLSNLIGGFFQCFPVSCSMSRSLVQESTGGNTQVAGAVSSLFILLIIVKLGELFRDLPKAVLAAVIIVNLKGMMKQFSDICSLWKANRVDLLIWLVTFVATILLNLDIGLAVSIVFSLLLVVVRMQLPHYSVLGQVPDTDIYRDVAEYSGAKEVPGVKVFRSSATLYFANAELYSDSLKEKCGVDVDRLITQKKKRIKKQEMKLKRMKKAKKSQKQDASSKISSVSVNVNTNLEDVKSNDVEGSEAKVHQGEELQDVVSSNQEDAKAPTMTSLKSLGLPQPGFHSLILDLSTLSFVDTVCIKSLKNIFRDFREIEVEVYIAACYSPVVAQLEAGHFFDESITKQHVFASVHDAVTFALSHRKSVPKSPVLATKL
Description: As PAT1 functions as a general monovalent anion exchanger, PAT1inh-B01 inhibition was studied for different modes of anion exchange. […] To measure Cl^–/HCO3^– exchange, the time course of cytoplasmic pH was measured, using BCECF as a pH indicator, in response to a gluconate gradient to drive exchange of cytoplasmic Cl^– with extracellular HCO3^– producing cytoplasmic alkalinization (Figure 2B) as done before for DRA and pendrin ([7], [10], [11]).
YFP-based cellular assays of slc26a3, slc26a4, SLC26A9, and TMEM16A function were performed as described previously ([7]). Slc26a1 and slc26a2 assays were done in transfected HEK 293 cells (see Supplemental Methods for details). Niflumic acid was used as a positive control for SLC26A isoforms ([7]). For TMEM16A, the selective small-molecule inhibitor TMinh-23 was used as a positive control ([28]). The activities of ENaC, CFTR, and CaCC were determined using well-differentiated HBE cells as described previously ([13]). Cl^–/HCO3^– exchange was measured as described previously ([7], [10], [11]). Briefly, cell cytoplasm was labeled with the pH-sensitive fluorescent dye BCECF-AM (Invitrogen), and Cl^–/HCO3^– exchange was measured in response to addition of a gluconate-containing solution to drive exchange of cytoplasmic Cl^– for extracellular HCO3^–, producing cytoplasmic alkalinization.

slc26a3 = molecular target: T2, slc26a3 (Mus musculus, UniProt Q9WVC8); test: Selectivity: Cl-/I- exchange in FRT cells coexpressing YFP and slc26a3; type: cell-based; settings: 25 μM
T2 construct: expressed in transfected cells; host or cells: FRT cells coexpressing YFP
T2 sequence (Q9WVC8 1-757): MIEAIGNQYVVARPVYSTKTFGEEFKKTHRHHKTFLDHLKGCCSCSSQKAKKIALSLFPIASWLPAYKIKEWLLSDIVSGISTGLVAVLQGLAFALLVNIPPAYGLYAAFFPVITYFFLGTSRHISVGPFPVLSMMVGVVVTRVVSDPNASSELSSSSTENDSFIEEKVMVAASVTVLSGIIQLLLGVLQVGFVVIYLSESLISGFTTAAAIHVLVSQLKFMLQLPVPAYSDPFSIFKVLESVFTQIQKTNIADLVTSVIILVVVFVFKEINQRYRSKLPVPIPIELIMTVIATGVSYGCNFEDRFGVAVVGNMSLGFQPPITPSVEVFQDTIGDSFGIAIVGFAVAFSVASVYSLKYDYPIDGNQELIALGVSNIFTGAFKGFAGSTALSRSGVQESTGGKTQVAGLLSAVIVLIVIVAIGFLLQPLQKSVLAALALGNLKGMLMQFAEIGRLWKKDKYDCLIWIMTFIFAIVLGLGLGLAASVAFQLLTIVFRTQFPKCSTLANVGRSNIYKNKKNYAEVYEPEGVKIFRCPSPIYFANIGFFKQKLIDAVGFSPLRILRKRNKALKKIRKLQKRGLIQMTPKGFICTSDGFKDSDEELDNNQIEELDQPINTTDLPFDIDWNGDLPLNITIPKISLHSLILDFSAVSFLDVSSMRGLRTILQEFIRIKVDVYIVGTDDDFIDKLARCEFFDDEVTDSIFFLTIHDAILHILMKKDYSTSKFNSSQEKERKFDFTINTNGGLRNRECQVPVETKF
Description: PAT1inh-B01 selectivity was studied by testing its effects on related SLC26A family anion transporters and the Cl^– channel TMEM16A. These measurements used a similar Cl^–/I^– exchange protocol, but FRT cells separately expressed each of the SLC26A family members or TMEM16A. […] PAT1inh-B01 selectivity was also tested by short-circuit current (Isc) in well-differentiated human bronchial epithelial (HBE) cells, which have a complex ion transport mechanism that includes cystic fibrosis transmembrane conductance regulator (CFTR), epithelial Na^+ channel (ENaC), and Ca^+2-activated chloride channels (CaCCs) ([13]). […] Potential PAT1inh-B01 cytotoxicity was studied in FRT cells.
Figure 3 PAT1inh-B01 selectivity and cytotoxicity. […] Cl^–/I^– exchange or I^– influx measured in FRT cells coexpressing YFP and SLC26A isoforms or TMEM16A, with data shown for 25 μM PAT1inh-B01, DMSO vehicle control, and 500 μM niflumic acid (positive control for SLC26A transporters) or 10 μM TMinh-23 (positive control for TMEM16A). […] (C) (left) Short-circuit current (Isc) in well-differentiated HBE cells measured in the absence (top) and presence (bottom) of 25 μM PAT1inh-B01. […]
YFP-based cellular assays of slc26a3, slc26a4, SLC26A9, and TMEM16A function were performed as described previously ([7]). […] The activities of ENaC, CFTR, and CaCC were determined using well-differentiated HBE cells as described previously ([13]). […]

IC50 (PAT1 (murine slc26a6)): 0.29 µM
inhibition of slc26a3 (slc26a3): did not significantly inhibit
Compound: Cc1c(Br)c(C(F)(F)F)nn1CC(=O)N1CCc2nc3cc(-c4ccccc4)[nH]n3c(=O)c2C1 [PAT1inh-B01]
